Values of other authors in patent US6440950B1, “Selective and non-invasive visualization or treatment of vasculature” (The Johns Hopkins University, priority 1994, dated 2002).

Columns and labels:
[1] = in vivo
[2] = in a number of species
[3] = used intraperitonially in a few patients

aluminum phthalocyanine tetrasulfonate [AlPcS4]
time to removal from the blood [1]: ≤ 24 h | toxicity [2]: non-toxic | side effects [3]: no side effects have been reported | water solubility: water soluble
